Values of other authors as cited in patent publication US5360612A, “Pharmaceutical compositions containing triazole derivatives for rectal administration” (Pfizer Inc., priority 1992, dated 1994).

Conditions: in vivo

For `CN[C@@H](C)[C@H](O)c1ccccc1` [ephedrine], the “bioavailability from suppository fatty bases” value is given as “do not show good bioavailability”.
